Assay results from paper PMC10427391, “Identification of Cytochrome P450 2E1 as a Novel Target in Glioma and Development of Its Inhibitor as an Anti‐Tumor Agent” (Advanced Science, 2023).
Like-named read-outs stand apart in the source and are kept apart here.

How the values were obtained:
[1] = test system: primary microglia; assay: Primary microglia induced by IL-4 and IL-13: polarization markers and signaling (western blot, immunofluorescence)
Procedure: Tissues and cells were harvested and lysed with RIPA buffer. The protein concentration was determined using a BCA kit. Samples were separated on 10% SDS‐PAGE gels and blotted onto nitrocellulose membranes (Millipore).The membranes were incubated with primary antibodies at 4 °C overnight, washed three times with TBST, and then incubated with HRP‐conjugated anti‐mouse IgG or anti‐rabbit IgG diluted in TBST containing 1% non‐fat milk at room temperature for 1 h. After final washing with TBST, the membranes were developed by using ECL.

[2] = target: T1, CYP2A6 (Homo sapiens, UniProt P11509); assay: Selectivity, microsomal incubation, CYP2A6 (coumarin as substrate); assay type: biochemical
T1 construct: A 100 µL microsomal incubation system; from tissue
T1 sequence (P11509 1-494): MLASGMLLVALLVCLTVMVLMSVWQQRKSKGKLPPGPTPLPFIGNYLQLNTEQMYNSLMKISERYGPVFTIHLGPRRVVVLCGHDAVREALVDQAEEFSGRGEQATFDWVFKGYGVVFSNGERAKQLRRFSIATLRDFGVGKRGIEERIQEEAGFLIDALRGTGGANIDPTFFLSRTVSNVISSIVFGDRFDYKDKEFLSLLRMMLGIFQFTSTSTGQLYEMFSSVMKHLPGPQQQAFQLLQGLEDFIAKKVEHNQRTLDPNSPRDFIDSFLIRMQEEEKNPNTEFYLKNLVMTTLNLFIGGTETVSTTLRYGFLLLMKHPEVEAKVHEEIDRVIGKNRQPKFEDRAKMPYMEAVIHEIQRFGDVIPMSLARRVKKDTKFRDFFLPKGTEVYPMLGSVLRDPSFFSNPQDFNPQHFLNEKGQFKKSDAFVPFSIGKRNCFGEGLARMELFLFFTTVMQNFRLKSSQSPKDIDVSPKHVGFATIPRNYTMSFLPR
Procedure: (§1) A 100 µL microsomal incubation system^[ [44] ^] contained probe drugs for each CYP with different series of concentrations, Q11, phosphate buffer, EDTA, magnesium chloride, and substrates (phenacetin for CYP1A2, coumarin for CYP2A6, bupropion for CYP2B6, paclitaxel for CYP2C8, tolbutamide for CYP2C9, omeprazole for CYP2C19, dextromethorphan for CYP2D6, chlorzoxazone for CYP2E1, midazolam for CYP3A4/5). HPLC‐UV and HPLC‐FLD were used to measure the number of metabolites.

[3] = test system: other CYP enzymes (CYP1A2, CYP2B6, CYP2C8, CYP2C9, CYP2C19, CYP2D6, CYP3A4/5); assay: Selectivity, microsomal incubation, remaining CYPs; assay type: biochemical; conditions: probe substrates
Procedure: as §1

[4] = target: T2, CYP2E1 (Rattus norvegicus, UniProt P05182); assay: In vivo inhibition of CYP2E1 activity by metabolism of diethylnitrosamine (DEN), self-controlled cross-administration; parameters: species or system rats; conditions: DEN 50 mg kg^−1 i.p.
T2 construct: from tissue; host or cells: living rats (whole animal, endogenous enzyme)
T2 sequence (P05182 whole entry): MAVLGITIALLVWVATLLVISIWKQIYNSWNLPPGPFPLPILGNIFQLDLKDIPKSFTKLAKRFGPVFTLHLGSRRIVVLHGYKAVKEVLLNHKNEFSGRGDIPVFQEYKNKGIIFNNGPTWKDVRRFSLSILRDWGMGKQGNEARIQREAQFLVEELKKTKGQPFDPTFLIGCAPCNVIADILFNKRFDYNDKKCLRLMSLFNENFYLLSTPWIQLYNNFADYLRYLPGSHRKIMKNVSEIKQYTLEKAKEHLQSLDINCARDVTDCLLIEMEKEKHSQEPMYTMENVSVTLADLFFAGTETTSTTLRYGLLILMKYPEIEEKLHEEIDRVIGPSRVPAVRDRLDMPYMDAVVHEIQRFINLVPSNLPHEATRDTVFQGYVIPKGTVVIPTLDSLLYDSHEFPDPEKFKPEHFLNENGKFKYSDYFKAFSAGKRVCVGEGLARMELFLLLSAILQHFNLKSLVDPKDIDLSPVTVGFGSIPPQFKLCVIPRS
Procedure: A self‐controlled cross‐administration experiment was designed based on previous report.^[ [45] ^] In the first round of the experiment, a single intraperitoneal injection of diethylnitrosamine at 50 mg kg^−1 was given in the first week. After a 1‐week interval, the second round of the experiment was conducted, where each rat was given Q11 at 6, 30, or 150 mg kg^−1 (i.g), and then, after 5 min, an intraperitoneal injection of diethylnitrosamine at 50 mg kg^−1 was given. Collection of orbital blood was carried out at 2, 7, 15, 30 min and 1, 2, 4, 6, 9, 12, 24, 36, 48, 60 h.

[5] = Bioavailability and pharmacokinetics of Q11 in rats; assay type: in vivo, SD rats
Procedure: Eight healthy male SD rats were randomly divided into 2 groups (4 rats in each group) using a double‐period self‐cross control principle. The first group was given Q11 (30 mg kg^−1, i.g), and the second group was given Q11 (30 mg kg^−1, i.v.). One week later, a second round of experiments was conducted in which Q11 (30 mg kg^−1, i.v.) was given to the first group of rats and Q11 (30 mg kg^−1, i.g) was given to the second group. Collection of orbital blood was carried out at 0, 2, 7, 15, 30 min and 1, 2, 4, 6, 9, 12, 24 h after Q11 administration.
Thirty healthy male SD rats were randomly divided into three equal groups. Q11 was administrated at 6, 30, or 150 mg kg^−1 (i.g) to these three groups. Collection of orbital blood was carried out at 0, 2, 7, 15, 30 min and 1, 2, 4, 6, 9, 12, 24, 36 h after Q11 administration.

[6] = Central inhibitory effect; conditions: clomethiazole: at a dose that inhibited CYP2E1
[7] = target: T3, CYP2E1 (Homo sapiens, UniProt P05181); assay: Surface plasmon resonance binding of Q11 to CYP2E1 (Biacore 8k); parameters: purchased Cloud-Clone Corp. Wuhan
Procedure: Surface Plasma Resonance (SPR) experiments^[ [43] ^] were carried out using the Biacore system (Biacore 8k, Cytiva). Recombinant CYP2E1 protein was purified by Cloud‐Clone Corp. Wuhan. Running buffer contained PBS (2 mM KH2PO4, 10 mM Na2HPO4, 137 mM NaCl, 2.7 mM KCl) with 0.005% Tween‐20, pH 7.4. CYP2E1 protein was diluted to 25 µg mL^−1 in immobilization buffer and bound to a CM5 chip at about 2000RU. Immobilization buffer contained 10 mM sodium acetate, pH 4.0. Samples of compound Q11 were diluted in running buffer with 125, 62.5, 31.25, 15.625, 7.8, 3.9, 1.95 µM and injected at 30 µL min^−1 for 60 s contact time followed by dissociation for 120 s. The data was fitted with Biacore Insight Evaluation software (Version 2.0).
Target sequence in this assay (P05181 whole entry, species assumed): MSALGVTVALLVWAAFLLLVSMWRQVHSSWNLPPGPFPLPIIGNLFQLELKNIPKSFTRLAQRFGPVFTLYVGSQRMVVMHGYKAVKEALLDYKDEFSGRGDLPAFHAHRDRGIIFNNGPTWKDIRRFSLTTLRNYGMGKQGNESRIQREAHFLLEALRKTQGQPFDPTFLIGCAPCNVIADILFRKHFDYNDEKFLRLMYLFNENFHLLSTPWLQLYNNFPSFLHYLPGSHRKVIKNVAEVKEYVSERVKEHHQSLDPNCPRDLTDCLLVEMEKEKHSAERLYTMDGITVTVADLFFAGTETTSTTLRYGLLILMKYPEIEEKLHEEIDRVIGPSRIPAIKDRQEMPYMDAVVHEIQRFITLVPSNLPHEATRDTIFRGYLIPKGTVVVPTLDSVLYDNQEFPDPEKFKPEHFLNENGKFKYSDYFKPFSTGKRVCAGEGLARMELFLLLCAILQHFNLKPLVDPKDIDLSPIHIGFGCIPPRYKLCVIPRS

[8] = Long-term Q11 treatment, safety, mice; conditions: 26 weeks
[9] = Long-term Q11 treatment, safety, rats; conditions: 12 weeks
[10] = test system: C6; assay: Direct effect on glioma cells (CCK-8), C6; conditions: concentrations below 100 µM
[11] = test system: U251 cells; assay: Direct effect on glioma cells (CCK-8), U251; conditions: concentrations below 100 µM
[12] = test system: GL261 cells; assay: Direct effect on glioma cells (CCK-8), GL261; conditions: concentrations below 100 µM
[13] = target: T3, CYP2E1; assay: In vitro inhibition of CYP2E1 (chlorzoxazone as substrate); assay type: biochemical; parameters: A 100 µL microsomal incubation system; from tissue
Procedure: Chlorzoxazone with a concentration of 62.5 µM and inhibitors with different gradient concentrations were selected to plot the inhibition of chlorzoxazone and to calculate the IC50 of the inhibitor. A Lineweaver–Burk curve was used to determine the mechanism and calculate the K i of inhibitors of CYP2E1.
as §1
Target sequence in this assay (P05181 whole entry): as the sequence (P05181 whole entry, species assumed) above

[14] = test system: intracerebral glioma; assay: Kaplan–Meier survival of mice with intracerebral glioma; conditions: Q11 30 mg kg^−1 vs saline, P log-rank = 0.0017
[15] = test system: microglia/macrophage of tumor microenvironment; assay: Immunohistochemistry of CD206 and CD86 on tumor tissues; conditions: Q11 group vs model
Procedure: Paraffin‐embedded specimens were cut into 4‐µm sections. After deparaffinization with xylene and rehydration, antigen retrieval was performed. For immunohistochemistry (IHC), endogenous peroxidase activity was blocked with 3% H2O2 in methanol. Primary antibodies against CYP2E1 (1:200, Abcam, ab28146), Iba‐1 (1:150, Servicebio, China), CD206 (1:150, Servicebio), and CD86 (1:150, Servicebio) were used and results were evaluated blindly by two pathologists and quantified by IPP 6.0 soft.

[16] = test system: glioma induced by C6 cells; assay: Intracranial orthotopic glioma model induced by C6 cells; conditions: SD rat, oral 30 mg kg^−1
[17] = test system: GBM; assay: Intracranial glioma models overall (rats, mice, nude mice)
[18] = test system: glioma induced by GL261 cells; assay: Intracranial orthotopic glioma model induced by GL261 cells; conditions: C57BL/6 mouse
[19] = test system: glioma induced by U251‐LUC cells; assay: Intracranial orthotopic glioma model induced by U251-LUC cells; conditions: for bioluminescence in tumor sites: day 14 after transplantation, Q11 at 10 and 30 mg kg^−1; for brain weight / tumor diameter / tumor volume: endpoint day 36 after transplantation
[20] = test system: GL261 cells; assay: Cell cycle of GL261 cells in co-culture with primary microglia
[21] = test system: HMC‐3 cells; assay: HMC-3 cells transfected with CYP2E1 plasmids: PPAR-γ and cytokines; conditions: HMC-3 transfected with CYP2E1 plasmids
[22] = test system: GL261 cells; assay: Migration (wound assay) of GL261 cells in co-culture with microglia/macrophages; conditions: 24 h
[23] = test system: inflammatory factors in TME; assay: Inflammatory factors in the tumor microenvironment of C6 orthotopic xenograft model; conditions: C6 model rats
[24] = In vivo biodistribution / BBB permeability of Q11 (plasma, cortex, hippocampus, HPLC)
[25] = test system: U251 cells; assay: Proliferation of glioma cells in indirect co-culture with microglia/macrophages, U251; conditions: co-cultured with primary microglia, RAW 264.7 or THP-1 macrophages
[26] = test system: GL261 cells; assay: Apoptosis (Annexin V-FITC/PI) of GL261 cells in co-culture with microglia/macrophages
[27] = test system: GL261 cells; assay: Proliferation of glioma cells in indirect co-culture with microglia/macrophages, GL261; conditions: co-cultured with primary microglia, RAW 264.7 or THP-1 macrophages
[28] = test system: U251 cells; assay: U251 glioma cells with conditioned medium of CYP2E1-overexpressing HMC-3 cells (proliferation, migration, apoptosis)
[29] = IL-4 and IL-13 10 ng mL^−1, 24 h
[30] = Q11 medium- and high-dose groups vs IL-4/IL-13 group

CN(CCOc1ccc(CC2SC(=O)NC2=O)cc1)c1ccccn1 (centres unmarked) [Rosiglitazone, reference compound]
effect on the action of Q11 (PPAR-γ dependence) ([1]; agonist of PPAR-γ added to Q11): completely blocked the effect of Q11

CC(=O)c1scnc1C [Compound Q11, 1‐(4‐methyl‐5‐thialzolyl) ethanone]
IC50 [2]: 76.2 µM | inhibition of other CYP enzymes [3]: no inhibition | inhibition ratio in terms of clearance (CL) of diethylnitrosamine (DEN) ([4]; Q11 6 mg kg^−1 i.g.): 63.98% | inhibition ratio in terms of clearance (CL) of diethylnitrosamine (DEN) ([4]; Q11 30 mg kg^−1 i.g.): 79.63% | inhibition ratio in terms of clearance (CL) of diethylnitrosamine (DEN) ([4]; Q11 150 mg kg^−1 i.g.): 85.42% | Tmax ([5]; male, SD, rat, blood, 30 mg kg^−1, oral administration, read-out: mean T max): 0.45 h | half-life ([5]; male, SD, rat, blood, 30 mg kg^−1, oral administration, read-out: mean t 1/2 (converted)): 3.05 h | bioavailability ([5]; male, SD, rat, blood, oral vs intravenous, 30 mg kg^−1): 94.7% | dose dependence of pharmacokinetic parameters ([5]; oral, dose 6 to 150 mg kg^−1): proportional changes | central inhibitory effect [6]: does not show a central inhibitory effect | Kd [7]: 7 µM | adverse reactions on long-term treatment [8]: no adverse reactions | adverse reactions on long-term treatment [9]: no adverse reactions | direct killing of C6 cells [10]: did not directly kill | direct killing of U251 cells [11]: did not directly kill | direct killing of GL261 cells [12]: did not directly kill | IC50 [13]: 1.64 µM | Ki [13]: 0.897 µM | type of inhibition of CYP2E1 ([13]; Lineweaver–Burk plot): competitive‐noncompetitive mixed‐type inhibitor | mean survival time [14]: 32 days | CD86 (M1 marker) positive cells [15]: increased significantly | number of CD206 (M2 marker) positive cells [15]: significantly reduced | growth of tumor (brain weight, tumor diameter, tumor weight) [16]: significantly suppressed | tumor-induced weight loss ([17]; intracranial xenografts): obviously improved | inhibitory effect on glioma growth compared with TMZ ([17]; orthotopic glioma models): superior to that of TMZ | growth of glioma (brain weight, tumor diameter, volumes) [18]: significantly inhibited | bioluminescence in tumor sites [19]: lesser bioluminescence | brain weight [19]: markedly suppressed | tumor diameter [19]: markedly suppressed | tumor volume [19]: markedly suppressed | cell cycle of GL261 cells [20]: arrested the cell cycle in S phase | changes caused by CYP2E1 overexpression (PPAR-γ, IL-4, IL-10, TGFβ up; IL-1α, IL-1β down) [21]: significantly blocked the changes | migration of GL261 cells [22]: restrained migration | M1-like inflammatory factors (IL-1β, TNF-α) [23]: increased | M2-like inflammatory factors (IL-4, TGF-β, IL-10, VEGFB, IL-6) [23]: significantly decreased | plasma concentration at peak ([24]; SD rats, 30 mg kg^−1 intragastric, about 1 h): 14.75 ng/mL | blood brain barrier (BBB) permeability ([24]; SD rats, 30 mg kg^−1 intragastric, cortex and hippocampus parallel to plasma): capable of penetrating BBB | Tmax ([24]; female, SD, rat, in vivo, po, 30 mg/kg): ~1 h | concentration at 4 h ([24]; female, SD, rat, plasma, oral, 30 mg kg^−1): 9.21 ng/mL | proliferation of U251 cells in co-culture [25]: significantly inhibited | apoptosis of GL261 cells [26]: promoted apoptosis | proliferation of GL261 cells in co-culture [27]: significantly inhibited | Arg-1 (M2 marker) expression [1, 29]: significantly reduced | iNOS (M1 marker) expression [1, 29]: increased | p-STAT-1 and p-NF-κB [1, 30]: significantly increased | p-STAT-3 and p-STAT-6 [1, 30]: significantly decreased | PPAR-γ expression ([1]; after induction by IL-4 and IL-13): significantly inhibited | tumor-promoting effects of upregulating CYP2E1 in HMC-3 (proliferation, migration, apoptosis of U251) [28]: reversed

Cn1nnc2c(C(N)=O)ncn2c1=O [TMZ, temozolomide, reference compound]
bioluminescence in tumor sites [19]: lesser bioluminescence | brain weight [19]: markedly suppressed | tumor diameter [19]: markedly suppressed | tumor volume [19]: markedly suppressed

Cc1ncsc1CCCl [clomethiazole, reference compound]
central inhibitory effect [6]: significant central inhibitory effect | IC50 ([13]; chlorzoxazone 62.5 µM, read-out: IC50 of inhibition on CYP2E1): 39.3 µM

O=C(Nc1ccccc1)c1cc([N+](=O)[O-])ccc1Cl [GW9662, reference compound]
PPAR-γ expression in presence of rosiglitazone ([1]; antagonist of PPARγ, blocked the ability of rosiglitazone): downregulated
